# According to patent US4603209A, “Fluorescent indicator dyes for calcium ions” (priority 1984, dated 1986):
# Like-named read-outs stand apart in the source and are kept apart here.
# Experiments:
# [1] = read-out: apparent dissociation constant for Mg-EGTA, cited from earlier work
# [2] = cited from earlier work
# [3] = calculated from tables of Martell & Smith, read-out: apparent dissociation constant for Ca-EGTA, cited from earlier work
# [4] = format: binding
# Protocol: (§1) Calcium and magnesium affinities of EGTA at high ionic strength were measured by titrating 125 micromole portions of EGTA (Fluka Chemical, puriss grade) with 1.00M KOH (J.T. Baker, low in carbonate). The EGTA was dissolved in 25 ml medium containing 225 mM KCl, 25 mM NaCl, and in some runs 10 mM CaCl2 or 21 mM MgCl2. This solution was stirred in a Radiometer TTA80 Titrator, bubbled continuously with nitrogen, and thermostatted at 18° C. while KOH was added in 0.005 or 0.01 ml aliquots from a ABU80autoburet. The pH was measured with a PHM84 meter, a G2040C electrode and an Ag/AgCl reference electrode connected to the titration solution by a long length of 0.01 inch catheter tubing filled with 3M KCl; this electrode chain was calibrated with phthalate (4.001), phosphate (6.889), and borax (9.245) buffers made according to National Bureau of Standards recipes. The fifty to eighty pH readings in each titration were analyzed by the FORTRAN program SCOGS of Sayce (see reference 36). The resulting proton ionization constants for EGTA were 9.537 and 8.961 with computed uncertainties of ±0.012 and ±0.008 respectively. […] At this ionic strength and any pH>4, the effective stability constant K'Ca may be calculated as (antilog 10.77)·[1 +antilog (3.51-pH)]/[1+antilog (9.537-pH)+antilog (9.537+8.961-2·pH)]in units of liters/mole. […]
# [5] = format: binding; remark: listed apart in the source
# Protocol: as §1
# [6] = reference 11; cited from earlier work
# [7] = reference 11; cited from earlier work; remark: listed apart in the source
compound,measurement,setting,value
"O=C(O)CN(CCOCCOCCN(CC(=O)O)CC(=O)O)CC(=O)O [EGTA, ethylene glycol bis(beta-aminoethyl ether)-N,N,N',N'-tetracetic acid]",Kd,"[1]; pH 7.05 in 130 mM KCl, 20 mM NaCl at 37°",8960 µM
same,Kd,[1]; pH 7.18 in 130 mM KCl at 20°,21000 µM
same,Kd,"[2]; pH 7.11, reference 11, read-out: effective dissociation constant of EGTA for Zn^2+",0.00427 µM
same,preference for Zn^2+ over Ca^2+,[2]; reference 11,ca. 50 fold
same,Kd,"[3]; pH 7.00 in 0.1M KCl, 20° C.",0.38 µM
same,Kd,"[3]; pH 7.05 in 130 mM KCl, 20 mM NaCl at 37° C.",0.214 µM
same,Kd,"[3]; pH 7.20 in 0.1M KCl, 20° C.",0.151 µM
same,proton pKa for Ca.EGTA,"[4]; 225 mm kcl, 25 mm nacl",3.51±0.49
same,Kd,"[4]; pH 7.02 in 225 mM KCl, 25 mM NaCl at 18° C., freshly determined, read-out: apparent dissociation constant for Ca-EGTA",0.49 µM
same,proton pKa for Mg.EGTA,"[5]; 225 mm kcl, 25 mm nacl",7.885±0.05
same,Kd,"[5]; pH 7.02 in 225 mM KCl, 25 mM NaCl at 18°, freshly determined, read-out: apparent dissociation constant for Mg-EGTA",99000 µM
same,preference for Fe^2+ over Ca^2+,[6],ca. 8 fold
same,preference for Mn^2+ over Ca^2+,[7],ca. 20 fold
